Results on 14 compounds are retold here after US9951025B2, “Halogenopyrazoles as inhibitors of thrombin” (VERSEON CORPORATION, priority 2013, dated 2018).

Non-standard residues stand in square brackets, D forms with d. No end group written: not given here. Oic = O=C(O)[C@@H]1C[C@@H]2CCCC[C@@H]2N1; Phe(4-Me) = Cc1ccc(C[C@H](N)C(=O)O)cc1 Some results are limits rather than exact numbers.

In series [1] the test system is lung metastases. The following applies: administered prior to cancer cell inoculation; cited from earlier work.
The conditions of series [2]: in vivo; cited from earlier work.
For series [3] the following is noted: intrathecal, cited from earlier work.
For series [4], the system named is glioma. The following applies: systemic use, rat glioma models; cited from earlier work.
The conditions of series [5]: cited from earlier work.
The test system of series [6] is malignant breast tumors. To be noted: cited from earlier work.
Series [7] deals with lung fibroblasts. To be noted: mouse, in vivo; cited from earlier work.
Series [8] deals with prostate cancer cell line PC-3. To be noted: PC-3, concentration dependent manner; cited from earlier work.
The subject of series [9] is tumor. The following applies: cited from earlier work.
For series [10] the following is noted: after 7 weeks of administration; cited from earlier work.
In series [11] the target is T1, Human thrombin (Homo sapiens, UniProt P00734).
T1 construct: purchased Haematologic Technologies Inc
The experiment in a line: thrombin protease inhibition assay, chromogenic substrate S-2238. The series is classed as biochemical. The following applies: 3 nM human thrombin, 125 μM S-2238, 10 min pre-incubation, RT. As for the experimental part:
Compounds described herein can be assayed, by a variety of methods known in the art and described herein, for inhibition of biological activity, e.g., protease activity, of a variety of proteins, e.g., thrombin.
The thrombin activity reported herein (e.g., Table A) was obtained as follows. […] Thrombin was assayed in buffer containing 0.05 M Tris (pH 7.4), 0.015 M NaCl and 0.01% PEG-8000. The final concentration of enzyme used was 3 nM thrombin. […] All assays were performed in 96-well microtiter plates at room temperature (RT). […] Inhibitor IC50 values were determined by adding test compound as ten point, three-fold serial dilutions in buffer solution, as known in the art. The plate was read at 10 minutes after substrate addition. The IC50 was calculated by plotting the percent (%) inhibition against compound concentration and fitting the data to a constrained four parameter sigmoidal curve, as known in the art.

With hirudin, the “number of lung metastases” value in series [1] is “dramatically reduced”. Further, the disease severity entry in series [2] is reported as “dramatic improvement”. Also, the pain responses result in [3] (for 7 days) was “curbed”. In addition, in series [3], the “development of neuropathic pain” value was “prevented”. For the compound `CC1CNc2c(cccc2S(=O)(=O)N[C@@H](CCCNC(=N)N)C(=O)N2CC[C@@H](C)C[C@@H]2C(=O)O)C1` (stereo partly drawn) [argatroban], in series [4], the survival time entry is given as “prolonged” and the tumor mass result is “reduced”. For `N=C(N)c1ccc(CNC(=O)[C@@H]2CCN2C(=O)[C@H](NCC(=O)O)C2CCCCC2)cc1` [melagatran], the kidney graft survival entry in series [5] (at 3 months) is recorded as “drastically improved”. Moreover, the ischemia reperfusion injury entry in series [5] (kidney transplant model) is on record as “greatly reduced”. With `CCCCCCOC(=O)NC(=N)c1ccc(NCc2nc3cc(C(=O)N(CCC(=O)OCC)c4ccccn4)ccc3n2C)cc1` [dabigatran etexilate], in [6] (mouse, in vivo), the “invasion and metastasis of malignant breast tumors” value is listed as “inhibited”; the “reduction of tumor cells in the blood and liver micrometastases” value is on record as 50-60%. Besides, the weight loss entry in series [6] (treated mice, 4 weeks) is given as “no weight loss”. Further, the “profibrotic events in lung fibroblasts, including production of collagen and connective tissue growth factor” value in [7] is listed as “reduced”. [dR][Oic]P[dA][Phe(4-Me)]: in [8], the thrombin-stimulated invasion entry is listed as “block”. For the same compound, the overall tumor weight result in series [9] (compared to untreated mice) is recorded as “reduced”. In [9] (mice dosed through drinking water), the “rate of tumor growth” value is given as “reduced”.

In the case of `CC(=O)Nc1c(-c2ccccc2)cccc1S(=O)(=O)N[C@@H](CCCc1ccc(N)cn1)C(=O)N1CCC(=C(F)F)CC1` [SSR182289], in series [10], the liver fibrogenesis result is recorded as “decreased liver fibrogenesis significantly”.

The term IC50 denotes the concentration that inhibits the measured activity by half. Low values mean greater potency in that assay, high ones weaker potency in that assay. Turning to `COc1ccc(C(=O)n2nc(C3CCOCC3)c(F)c2NCc2ccc(Cl)s2)c(OC)c1` [Compound 36, N-[(5-chlorothiophen-2-yl)methyl]-1-(2,4-dimethoxybenzoyl)-4-fluoro-3-(oxan-4-yl)-1H-pyrazol-5-amine], the IC50 in series [11] was < 100 nM. With `COc1ccccc1C(=O)N(Cc1ccc(Cl)s1)c1[nH]nc(-c2ccc3c(c2)CCCC3=O)c1F` [Compound 56, N-[(5-chlorothiophen-2-yl)methyl]-N-[4-fluoro-3-(5-oxo-5,6,7,8-tetrahydronaphthalen-2-yl)-1H-pyrazol-5-yl]-2-methoxybenzamide], in series [11], the IC50 was > 1000 nM. With `O=C1CCCN1c1ccc(-c2nn(C(=O)c3cccc4c3OCCO4)c(NCc3ccc(Cl)s3)c2F)cc1` [Compound 17, 1-[4-(5-[(5-chlorothiophen-2-yl)methyl]amino-1-(2,3-dihydro-1,4-benzodioxine-5-carbonyl)-4-fluoro-1H-pyrazol-3-yl)phenyl]pyrrolidin-2-one], the IC50 in series [11] was < 100 nM. Turning to `COc1ccccc1C(=O)n1nc(NCc2ccc(Cl)s2)c(F)c1C1CCN(S(=O)(=O)c2cccc3c(N(C)C)cccc23)CC1` [Compound 55, N-[(5-chlorothiophen-2-yl)methyl]-5-(1-[5-(dimethylamino)naphthalen-1-yl]sulfonylpiperidin-4-yl)-4-fluoro-1-(2-methoxybenzoyl)-1H-pyrazol-3-amine], in series [11], the IC50 was > 1000 nM. Regarding `CN(C)c1cccc2c(S(=O)(=O)Nc3ccc(C(=O)n4nc(C5CCNCC5)c(F)c4NCc4ccc(Cl)s4)cc3)cccc12` [Compound 57, N-[4-(5-[(5-chlorothiophen-2-yl)methyl]amino-4-fluoro-3-(piperidin-4-yl)-1H-pyrazole-1-carbonyl)phenyl]-5-(dimethylamino)naphthalene-1-sulfonamide], the half-maximal inhibitory concentration (IC50) in series [11] is < 100 nM. For the compound `COc1ccccc1C(=O)n1nc(-c2ccc(C(O)C(F)(F)F)cc2)c(F)c1NCc1ccc(Cl)s1` (stereo not drawn) [Compound 18, 1-[4-(5-[(5-chlorothiophen-2-yl)methyl]amino-4-fluoro-1-(2-methoxybenzoyl)-1H-pyrazol-3-yl)phenyl]-2,2,2-trifluoroethan-1-ol], the IC50 in series [11] is > 1000 nM.

For `CC(C)(CO)C(=O)n1nc(-c2ccccc2)c(F)c1NCc1ccc(Cl)s1` [Compound 14, 1-(5-[(5-chlorothiophen-2-yl)methyl]amino-4-fluoro-3-phenyl-1H-pyrazol-1-yl)-3-hydroxy-2,2-dimethylpropan-1-one], in [11], the IC50 is < 100 nM. Regarding `O=C(n1nc(-c2ccccc2)c(F)c1NCc1ccc(Cl)s1)C1(CO)CC1` [Compound 62, [1-(5-[(5-chlorothiophen-2-yl)methyl]amino-4-fluoro-3-phenyl-1H-pyrazole-1-carbonyl)cyclopropyl]methanol], the IC50 in series [11] was < 100 nM.
